In US20250204535A1, “Rodenticide” (priority 2022, published 2025):
Where no end group is shown, it is not given here.

Tests used:
Assay type in all cases: cell-based
[1] = system: Human IPSC-derived cardiomyocytes; assay: Screening synthetic peptides for alterations to human IPSC-derived cardiomyocyte beat rates; conditions: 2 h; dose not stated in the sentence (no increase at 0.1, 1 and 10 μg/ml)
Experimental: The baseline beat rate of neonatal rat and human IPSC-derived cardiomyocytes to be treated with the three synthetic fractions were determined by video microscopy of each well in triplicate using a microscope camera. Average beats/min were calculated from the triplicate readings of three separate wells (n=9). Aliquots of each peptide were taken to treat neonatal rat cardiomyocyte cells at doses of 100, 10, 1 and 0.1 μg/ml. Cells were returned to a humidified incubator at 37° C., 5% CO2 for 2 h. After 2 h the beat rate of the treated cardiomyocyte cells was reassessed using the same method used to obtain the pre-dosing beat data. This process was repeated 24 h after the addition of the synthetic peptides.

[2] = system: Human IPSC-derived cardiomyocytes; assay: Screening synthetic peptides for human IPSC-derived cardiomyocyte toxicity (resazurin, 24 h); conditions: 10 μg/ml, toxicity control
Experimental: (§1) Human IPSC-derived cardiomyocytes were purchased from Axol Biosciences and cultured as via their standard methodology. Briefly, cells were recovered from liquid nitrogen storage when required and the cells transferred dropwise into 10 ml of pre-warmed (37° C.) plating media (cardiomyocyte maintenance media+10% FCS+10 μM ROCK inhibitor). Cells were centrifuged at 200×g for 5 mins at room temperature. The supernatant was aspirated from the cell pellet and the cell pellet gently resuspended in 1 ml plating media. Cells were counted using a haemocytometer and trypan blue staining. Cells were plated at a seeding density of 10-20,000 cells/well in fibronectin pre-coated 384 well plates. Cells were incubated at 37° C., 5% CO2 in a humidified incubator overnight before the plating media was removed the following day and replace with fresh maintenance media (No FCS, no ROCK inhibitor). Partial media changes were performed every 2-days until cells formed a single continuous sheet of spontaneously beating cardiomyocytes (7-10 day in culture).
(§2) Rat neonatal cardiomyocytes, Embryonic chick cardiomyocytes, human IPSC-derived cardiomyocytes and rat cardiac fibroblast were cultured. […] After 24 h Resazurin dye was added to each well at a final concentration of 160 μM and the change in fluorescence of the dye monitored and recorded over a 24 h time period.

[3] = system: rat neonatal cardiomyocyte cells; conditions: 37, 60, 80, 100° C.; 6 μg/ml; rat cardiomyocytes; FIG. 4
Experimental: Thermal stability of the six lead fractions was investigated. Aliquots of each fraction were heated in a heat block to 37° C. (unheated), 60° C., 80° C. and 100° C. before being used to treat rat neonatal cardiomyocyte cells at a dose of 6 μg/ml. Cardiomyocyte toxicity was assessed after 24 hrs of dosing at each temperature against a similar aliquot of each fraction that had been unheated before dosing. After 24 h, 160 μM Resazurin dye was added to all cells and the change in cardiomyocyte cell viability/metabolism monitored every hour up to 5 h post dye addition. An additional measurement was recorded 24 hs after the dye had been added.

[4] = system: Neonatal rat cardiomyocytes; assay: Screening purified venom fractions for alterations to cardiomyocyte beat rates; conditions: for Highest Achieved Fold Increases in Beat Rate: 1 h; for fold increases to beat rate: dose of 6 μg/ml
Experimental: Neonatal rat cardiomyocytes were isolated as via standard protocol and seeded at a density of 100,000 cells/96 well. Once myocyte cultures were beating spontaneously in uniform sheets, they were videoed well-by-well using a microscope camera to determine pre-dose beat rates/min. […] Cells were incubated in each fraction in a humidified incubator at 37° C., 5% CO2 for 1 h. After 1 h videos of the cells were re-recorded to obtain the post-dosing beat rate/minute. Fold changes in beat frequency were calculated for each dosed well pair.

[5] = system: neonatal rat cardiac fibroblast cells; assay: Screening purified venom fractions for rat cardiac fibroblast toxicity (resazurin); conditions: neonatal rat cardiac fibroblasts
Experimental: Hearts were collected from euthanised 1-2-day old neonatal rat pups and transferred into filter sterilised ice-cold Hanks balanced salt solution (HBSS) containing 2% Pen-strep. Hearts were washed in the HBSS, any non-heart tissue removed and then cut into 1-3 mm pieces and placed in 40 ml filter sterilised, ice cold 0.1% trypsin/HBSS. The heart pieces in trypsin were place in a large ice bucket and incubated overnight at 4° C. on a rocker with gentle agitation to allow the tissue to digest.
The following day, all trypsin was aspirated from the tissue and the tissue transferred evenly into 2 ml Eppendorf tubes. The tissue was then digested further using a 37° C. 1 mg/ml collagenase/HBSS (filter sterilised) solution. For each collagenase digestion, 2 ml of enzyme buffer was added to all Eppendorf tubes and the tubes incubated in a 37° C. heating block for 2 mins with 400 rpm agitation. The supernatant from the first two digestions was discarded. After each of the following digestion steps, the tissue was gently triturated using a pipette to release cells. Once trituration was complete the supernatant was retained, added to a tube containing 10 ml cell culture media and stored on ice.
All cell containing supernatants were filtered through a 250 μm cell strainer to remove any potentially undigested tissue and myocytes separated from cardiac fibroblast by spinning the supernatant at 1800 g for 45 mins through a Percoll gradient. […]
Neonatal rat cardiomyocytes and cardiac fibroblasts were treated with purified venom fractions suspected of being cardiotoxins at doses of 12.5, 7.5, 6 μg/ml, with rat cardiomyocytes being treated at additional concentrations of 3.5, 2.5, 1 and 0.5 μg/ml for 2 hs in a humidified incubator at 37° C., 5% CO2. […] The change in fluorescence of the resazurin dye was monitored over a 5 h timeframe using a BMG Fluostar plate reader. Percent inhibition of both cell types in response to each fraction at each dose were calculated and plotted graphically.

[6] = system: Embryonic chick cardiomyocytes; assay: Screening synthetic peptides for embryonic chick cardiomyocyte toxicity (resazurin, 24 h); conditions: 10 μg/ml, toxicity control
Experimental: Hearts were collected from euthanised 12-13 day old embryonic chicks and transferred into filter sterilized ice-cold hanks balanced salt solution (HBSS) containing 2% Pen-strep. Hearts were washed in the HBSS to remove blood, any non-heart tissue removed and then cut into 1-3 mm pieces and placed in 40 ml filter sterilized, ice cold 0.05% trypsin/HBSS. The heart pieces in trypsin were place in a large ice bucket and incubated for 1 h on a rocker with gentle agitation to allow the tissue to digest.
All trypsin was aspirated from the tissue and discarded, and the tissue transferred evenly into 2 ml Eppendorf tubes. The tissue was then digested further using a 1 mg/ml Collagenase II/0.1% Trypsin/HBSS (filter sterilized) solution. For each digestion, 2 ml of enzyme buffer was added to all Eppendorf tubes and the tubes incubated in a 37° C. heating block for 3 mins with 400 rpm agitation. The supernatant from the first two digestions was discarded. After each of the following digestion steps, the tissue was gently triturated using a Pasteur pipette to release cells. […]
as §2

[7] = system: Human IPSC-derived cardiomyocytes; assay: Six lead fractions: toxicity to human IPSC-derived cardiomyocytes (resazurin); conditions: 3.5 μg/ml
Experimental: as §1
Once beating spontaneously, cells were treated with the six lead fractions diluted in maintenance media to final working concentrations of 7.5, 6, 3.5, 2.5 and 1 μg/ml. 30 μl of each fraction dilution was added to triplicate wells of cells and incubated for 2 h at 37° C., 5% CO2 in a humidified incubator. After 2 h, resazurin dye at a final working concentration of 160 μM were added to all wells and the change in fluorescence of the plate monitored over a 5 h timeframe using a BMG Labtech Fluostar plate reader. Percent toxicity was calculated from triplicate wells at each dose and plotted graphically.
Human IPSC derived cardiomyocytes were dosed in triplicate with a serial dilution of each of the six venom fractions (7.5, 6, 3.5, 2.5 and 1 μg/ml) for 2 hs at 37° C., 5% CO2 before resazurin dye was added and the change in colour and fluorescence monitored for the following 5 hrs. Percentage toxicity was calculated for each fraction at all doses and plotted graphically (FIG. 3).

LKCNKLIPLAYKT [Synthetic peptide 2]
increase to the beat rate of human cardiomyocytes over pre-dosing beat rate [1]: 1.5 fold

N.nig_I19_R4 (LKCNKLIPIAYKTCPEGKNLCYKMMLASKKMVPVKRGCIDVCPKDSALVKYVCCSTDRCN)
toxicity against human IPSC-derived cardiomyocytes [2]: ≈ 90% | thermal stability (change in cytotoxic activity after heating) [3]: no significant changes in the activity | Highest Achieved Fold Increases in Beat Rate ([4]; Dose 1 μg/ml): 6.25 fold | fold increases to beat rate [4]: greater than 5.5 fold | doses showing cardiac fibroblast toxicity [5]: 12.5 µg/mL | toxicity against embryonic chick cardiomyocytes [6]: ≈ 90%

N.nka_I18_R4 (LKCNKLIPLAYKTCPAGKDLCYKMYMVSDKTVPVKRGCIDVCPKNSLLVKYECCNTDRCN)
toxicity against human IPSC-derived cardiomyocytes [2]: ≈ 90% | thermal stability (change in cytotoxic activity after heating) [3]: no significant changes in the activity | Highest Achieved Fold Increases in Beat Rate ([4]; Dose 6 μg/ml): 7.00 fold | fold increases to beat rate [4]: greater than 7 fold | toxicity in human IPSC-derived cells compared to rodent cardiomyocytes [7]: reduction in toxicity | toxicity against embryonic chick cardiomyocytes [6]: ≈ 90%
